Assay results: PubChem BioAssay AID743319 (Broad Institute, 2014)
Calls of active or inactive are those of the source.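 How the source made its calls: active means fitted curve reaches 200% activation at or below the highest valid dose tested for that compound; inconclusive means flat fit between 30 and 70% activation, or unreliable fit; inactive means the rest.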

Target: Endoplasmic reticulum aminopeptidase 2 (Homo sapiens) (UniProt Q6P179)
Assay: ERAP2 activation by compounds, dose response, selectivity assay for selective ERAP1 modulator project, biochemical, fluorescence plate reader, cherry-picked samples (AID 743319)
Conditions: recombinant ERAP2, Arg-AMC cleavage fluorescence, 1 h

Endoplasmic reticulum aminopeptidase 2 (Homo sapiens), sequence (Q6P179 whole entry, looked up): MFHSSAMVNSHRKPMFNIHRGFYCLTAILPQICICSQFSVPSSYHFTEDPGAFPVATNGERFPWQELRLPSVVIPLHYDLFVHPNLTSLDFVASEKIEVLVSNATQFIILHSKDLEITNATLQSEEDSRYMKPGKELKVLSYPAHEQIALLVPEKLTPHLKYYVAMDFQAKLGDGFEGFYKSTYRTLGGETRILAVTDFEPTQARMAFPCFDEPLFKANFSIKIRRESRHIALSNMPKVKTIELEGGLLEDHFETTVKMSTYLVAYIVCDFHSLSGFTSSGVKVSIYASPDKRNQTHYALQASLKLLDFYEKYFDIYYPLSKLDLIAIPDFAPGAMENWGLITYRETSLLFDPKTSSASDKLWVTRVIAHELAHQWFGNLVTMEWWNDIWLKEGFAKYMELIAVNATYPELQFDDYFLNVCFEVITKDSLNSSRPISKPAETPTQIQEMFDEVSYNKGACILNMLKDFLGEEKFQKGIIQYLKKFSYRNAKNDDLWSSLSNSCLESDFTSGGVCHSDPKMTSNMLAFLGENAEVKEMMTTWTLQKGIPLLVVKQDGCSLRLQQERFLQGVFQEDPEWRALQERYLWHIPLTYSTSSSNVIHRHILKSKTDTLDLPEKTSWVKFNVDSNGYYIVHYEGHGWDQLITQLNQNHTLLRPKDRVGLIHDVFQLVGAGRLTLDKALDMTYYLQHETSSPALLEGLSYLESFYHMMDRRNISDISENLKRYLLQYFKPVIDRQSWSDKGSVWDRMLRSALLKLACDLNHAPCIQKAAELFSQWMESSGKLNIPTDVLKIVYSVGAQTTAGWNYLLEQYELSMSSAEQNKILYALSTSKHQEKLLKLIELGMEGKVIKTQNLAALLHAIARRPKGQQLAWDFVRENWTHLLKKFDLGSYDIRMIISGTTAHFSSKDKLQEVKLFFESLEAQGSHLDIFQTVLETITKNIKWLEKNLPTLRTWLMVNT

Structure (SMILES) | AC200 | activation (at 11 µM (top of the series)) | also measured
Cc1c(C)c2ccc(O)c(CN3CCN(C)CC3)c2oc1=O | 3430 nM | – | –
Cc1noc(C)c1S(=O)(=O)Nc1ccc2c(c1)C(=O)N([C@H](C)CO)C[C@@H](C)[C@@H](CN(C)CC1CCCCC1)OCCCC[C@@H](C)O2 | – | 1.44% (inactive) | –
O=c1oc2cc(O)ccc2cc1S(=O)(=O)c1ccccc1 | 592 nM | – | –
COc1ccc(CNCc2c(O)c(Cl)cc3c(C)c(C)c(=O)oc23)c(OC)c1 | 1030 nM | – | –
C[C@H](CO)N1C[C@H](C)[C@H](CN(C)Cc2ccncc2)Oc2c(NC(=O)Nc3ccc(C(F)(F)F)cc3)cccc2C1=O | – | 4.68% (inactive) | –
CCCCc1cc(=O)oc2cc(O)ccc12 | 3980 nM | – | –
Cc1noc(C)c1S(=O)(=O)Nc1ccc2c(c1)C(=O)N([C@H](C)CO)C[C@H](C)[C@H](CN(C)Cc1ccc3c(c1)OCO3)OCCCC[C@@H](C)O2 | – | – | activation (at 10 µM (top of the series)): 11.2% (inactive)
CCCN(C)C[C@@H]1OCCCC[C@@H](C)Oc2ccc(NS(=O)(=O)c3ccc(F)cc3)cc2C(=O)N([C@H](C)CO)C[C@@H]1C | – | 10.6% (inactive) | –
O=C(NCc1ccccn1)[C@@H]1[C@@H](CO)[C@@H]2Cn3c(ccc(/C=C/c4ccccc4)c3=O)[C@H]1N2CC1CC1 | 2270 nM | – | –
C[C@@H]1CCCCO[C@@H](CN(C)Cc2ccccc2)[C@H](C)CN([C@H](C)CO)C(=O)c2cc(NS(=O)(=O)c3cccs3)ccc2O1 | – | 6.39% (inactive) | –
COC(=O)Cc1c(C)c2ccc(O)c(CNCc3ccc(OC)c(OC)c3)c2oc1=O | 1010 nM | – | –
Cc1ccc(S(=O)(=O)c2cc3ccc(O)cc3oc2=O)cc1C | 721 nM | – | –
Cc1cc(=O)oc2c(CN3CCCCC3)c(O)ccc12 | 1920 nM | – | –
Cc1c(-c2ccccc2)c(=O)oc2cc(O)ccc12 | 2340 nM | – | –
O=c1cc(CN2CCN(Cc3ccccc3)CC2)c2ccc(O)cc2o1 | 3540 nM | – | –
N#Cc1c(N2CCNCC2)nc(-c2ccco2)c2c1CCCC2 | – | 31.3% (inactive) | –
Cc1ccc(-c2cc(C(=O)N3CCCC3)c3ccccc3n2)s1 | > 11000 nM (inactive) | – | –

Structure (SMILES) | AC200 | activation (at 11 µM (top of the series)) | also measured
CCCN(C)C[C@@H]1OCCCC[C@@H](C)Oc2ccc(NS(=O)(=O)c3cccs3)cc2C(=O)N([C@H](C)CO)C[C@@H]1C | – | 11% (inactive) | –
Cc1c(O)ccc2cc(S(=O)(=O)c3ccccc3)c(=O)oc12 | 860 nM | – | –
CCC(=O)N(C)C[C@@H]1Oc2ncc(C#Cc3ccncc3)cc2C(=O)N([C@@H](C)CO)C[C@@H]1C | – | -17.3% (inactive) | –
C[C@@H]1CCCCO[C@@H](CN(C)C)[C@@H](C)CN([C@@H](C)CO)C(=O)c2cc(NS(=O)(=O)c3ccc(Cl)cc3)ccc2O1 | – | 2.17% (inactive) | –
C[C@H](CO)N1C[C@H](C)[C@H](CN(C)CC2CCCCC2)Oc2c(NC(=O)Nc3ccc(C(F)(F)F)cc3)cccc2C1=O | – | 11.4% (inactive) | –
O=c1oc2c(CN3CCN(CCO)CC3)c(O)ccc2cc1-c1ccccn1 | 606 nM | – | –
NC(=NCCc1c[nH]c2ccccc12)NS(=O)(=O)c1cc(F)ccc1F | – | 9.24% (inactive) | –
COc1ccc(S(=O)(=O)N(C)C[C@@H]2Oc3ncccc3C(=O)N([C@H](C)CO)C[C@@H]2C)cc1 | – | – | activation (at 5.6 µM (top of the series)): 11.3% (inactive)
O=C(C[C@H]1CC[C@H]2[C@@H](COC[C@@H](O)CN2C(=O)Nc2cccc(Cl)c2)O1)N1CCCCC1 | – | 8.71% (inactive) | –
COc1cc2cc(C(=O)N3CCN(Cc4ccc5c(c4)OCO5)CC3)c(=O)oc2cc1OC | > 5600 nM (inactive) | – | –
O=S(=O)(O)c1ccc(N2N=C(c3ccccc3)CC2c2ccccc2)cc1 (stereo not drawn) | 2050 nM | – | –
CCn1cc(CN2CCCC(C(=O)Nc3ccc(-c4nc5ccccc5[nH]4)cc3)C2)c(C)n1 (stereo not drawn) | – | 4.78% (inactive) | –
Cc1noc(C)c1S(=O)(=O)N(C)C[C@@H]1OCCCC[C@@H](C)Oc2ccc(NS(=O)(=O)c3cccs3)cc2C(=O)N([C@@H](C)CO)C[C@@H]1C | – | – | activation (at 10 µM (top of the series)): 21.7% (inactive)
CCN(CC)Cc1c(O)c(Cl)cc2c(C)cc(=O)oc12 | 1240 nM | – | –
O=c1ccc2cc(O[C@@H]3O[C@@H](CO)[C@H](O)[C@@H](O)[C@@H]3O)c(O)cc2o1 | 744 nM | – | –
O=c1ccc2cc(O)c(O)cc2o1 | 3270 nM | – | –
